Activity calls are given as the source filed them.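 How the source made its calls: active means compounds blocking the small tyrosine phosphatase LMPTP with an IC50 of 20 micromolar or lower; inactive means the rest.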
What follows are compounds tested against Low molecular weight phosphotyrosine protein phosphatase (Homo sapiens) (UniProt P24666) (assay: inhibition of human LMPTP, pNPP readout – biochemical, absorbance, orthogonal assay, SAR follow-up (AID 686963)). Conditions: recombinant LMPTP-A, 50 min.
Low molecular weight phosphotyrosine protein phosphatase (Homo sapiens), sequence (P24666 whole entry, looked up): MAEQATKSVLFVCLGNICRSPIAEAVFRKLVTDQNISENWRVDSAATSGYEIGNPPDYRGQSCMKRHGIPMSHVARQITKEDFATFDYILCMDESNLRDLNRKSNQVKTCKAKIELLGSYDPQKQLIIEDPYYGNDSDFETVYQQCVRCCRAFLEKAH

Compound | IC50
O=C(OCCNc1nc(-c2ccccc2)nc2ccccc12)c1ccncc1 | inactive
Nc1nc(N)c(Cc2ccc(Cl)cc2Cl)c(N)n1 | 13.5 µM
CCc1nc(N)nc(N)c1-c1ccc(Cl)cc1 | inactive
O=C(OCCNc1nc(-c2ccccc2)nc2ccccc12)c1cccnc1 | inactive
Cc1cccc(-c2nc(NCCCN3CCOCC3)c3ccccc3n2)c1 | inactive
Cc1ccc(-c2nc(NCCN3CCOCC3)c3ccccc3n2)cc1 | inactive
c1ccc(-c2cc(N3CCCCC3)c3ccccc3n2)cc1 | inactive
c1ccc(-c2nc(NCc3cccnc3)c3ccccc3n2)cc1 | inactive
Clc1cccc(Cl)c1Cn1cnc(=NCc2ccco2)c2[nH]cnc21 | 11.6 µM
Cc1c(CCC(=O)O)c(=O)oc2c(C)c(OCc3ccccc3Cl)ccc12 | 17.5 µM
Fc1ccccc1-c1nc(NCCCN2CCOCC2)c2ccccc2n1 | inactive
c1ccc(-c2cc(NCCN3CCCCC3)c3ccccc3n2)cc1 | 4.97 µM
c1ccc(-c2nc(NCCCn3ccnc3)c3ccccc3n2)cc1 | inactive
Fc1ccccc1-c1nc(NC2CCCC2)c2ccccc2n1 | inactive
COc1ccccc1CNc1ncnc2ccsc12 | > 80 µM (inactive)
CC(C)OCCCNc1nc(-c2ccccc2)nc2ccccc12 | inactive
Cc1ccc(-c2nc(NCc3cccnc3)c3ccccc3n2)cc1 | inactive
